According to patent publication US8980934B2, “Kinase inhibitors and method of treating cancer with same” (University Health Network, priority 2012, dated 2015):

Legend:
Assay in all cases: Cancer cell growth inhibition, Sulforhodamine B assay
Assay type in all cases: cell-based
[1] = test system: HCT116 colon cancer cells; conditions: Homo sapiens, HCT-116, 120 h; HCT116, 5 days culture, SRB; read-out: Cancer Cell Line GI50 Range HCT116
Method: (§1) Breast cancer cells (MDA-MB-231), colon cancer cells (HCT116) and ovarian cancer cells (PA-1) were seeded (1000 to 4000 in 80 μl per well depending on the cell growth rate) into 96 well plates 24 hours before compound overlay. Compounds were prepared as 10 mM stock solutions in 100% DMSO which were diluted with DMEM (Dulbecco's Modified Eagle's Medium) cell growth Medium (Invitrogen, Burlington, ON, Canada) containing 10% FBS (Fetal Bovine Serum) to concentrations ranging from 50 nM to 250 μM. Aliquots (20 μl) from each concentration were overlaid to 80 μl of the pre-seeded cells in the 96 well plates to make final concentrations of 10 nM to 50 μM. The cells were cultured for 5 days before the Sulforhodamine B assay (SRB) was performed to determine the compound's cell growth inhibition activity.
(§2) Sulforhodamine B (purchased from Sigma, Oakville, ON, Canada) is a water-soluble dye that binds to the basic amino acids of the cellular proteins. Thus, colorimetric measurement of the bound dye provides an estimate of the total protein mass that is related to the cell number. the cells are fixed in situ by gently aspirating off the culture media and adding 50 μl ice cold 10% Trichloroacetic Acid (TCA) per well and incubate at 4° C. for 30-60 min. The plates are washed with H2O five times and allowed to air dry for 5 min. Addition of 50 μl 0.4% (w/v) SRB solution in 1% (v/v) acetic acid to each well and incubatation for 30 min at RT completes the staining reaction. Following staining, plates are washed four times with 1% acetic acid to remove unbound dye and then allowed to air dry for 5 min. The stain is solubilized with 100 μl of 10 mM Tris pH 10.5 per well. Absorbance is read at 570 nm.
(§3) The percentage (%) of relative growth inhibition was calculated by comparing to DMSO treated only cells (100%). GI50's were determined for compounds with cytotoxic activity. The GI50 was calculated using GraphPad PRISM software (GraphPad Software, Inc., San Diego, Calif., USA). GI50 (growth inhibition) is the compound concentration that causes 50% inhibition of cell growth.
(§4) In Table 1 below, GI50 value ranges for several compound examples against breast cancer cell lines (MDA-MB-231), colon cancer cell lines (HCT116) and ovarian cancer cell lines (PA-1) are given. […] The GI50 ranges are indicated as “A,” “B,” and “C,” for values less than or equal to 0.1 μM; those greater than 0.1 μM and less than or equal to 0.5 μM; and those greater than 0.5 μM, respectively.

[2] = test system: MDA-MB-231 breast cancer cells; conditions: Homo sapiens, 120 h; MDA-MB-231, 5 days culture, SRB; read-out: Cancer Cell Line GI50 Range MDA-MB-231
Method: as §1, §2, §3, §4

[3] = test system: PA-1 ovarian cancer cells; conditions: 120 h; PA-1, 5 days culture, SRB; read-out: Cancer Cell Line GI50 Range PA-1
Method: as §1, §2, §3, §4

Structure (SMILES)	GI50 [1] [nM]	GI50 [2] [nM]	GI50 [3] [nM]
O=C(N[C@@H](c1ncccn1)C1CCCC1)c1ccc2[nH]nc(-c3ccc(N4CCC45COC5)cc3)c2c1 [Example A37, (R)-3-(4-(6-oxa-1-azaspiro[3.3]heptan-1-yl)phenyl)-N-(cyclopentyl(pyrimidin-2-yl)methyl)-1H-indazole-5-carboxamide]	≤ 100	≤ 100	≤ 100
CC(C)[C@@H](NC(=O)c1ccc2[nH]nc(-c3ccc(N4CC5(COC5)C4)cc3)c2c1)c1ccccc1Cl [Example A13, 3-(4-(2-Oxa-6-azaspiro[3.3]heptan-6-yl)phenyl)-N-((R)-1-(2-chlorophenyl)-2-methylpropyl)-1H-indazole-5-carboxamide]	≤ 100	100 to 500	≤ 100
O=C(NC(c1nccs1)C1CC1)c1ccc2[nH]nc(-c3ccc(N4CC5(COC5)C4)cc3)c2c1 (stereo not drawn) [Example A14, 3-(4-(2-Oxa-6-azaspiro[3.3]heptan-6-yl)phenyl)-N-(cyclopropyl(thiazol-2-yl)methyl)-1H-indazole-5-carboxamide]	≤ 100	≤ 100	≤ 100
CC(C)C[C@H](NC(=O)c1ccc2[nH]nc(-c3ccc(N4CCC45COC5)cc3)c2c1)c1ccccn1 [Example A35, (S)-3-(4-(6-Oxa-1-azaspiro[3.3]heptan-1-yl)phenyl)-N-(3-methyl-1-(pyridin-2-yl)butyl)-1H-indazole-5-carboxamide]	100 to 500	100 to 500	100 to 500
O=C(N[C@H](c1ccccn1)C1CCCC1)c1ccc2[nH]nc(-c3ccc(N4CCC45COC5)cc3)c2c1 [Example A34, (S)-3-(4-(6-Oxa-1-azaspiro[3.3]heptan-1-yl)phenyl)-N-(cyclopentyl(pyridin-2-yl)methyl)-1H-indazole-5-carboxamide]	100 to 500	100 to 500	100 to 500
CC(C)[C@H](NC(=O)c1ccc2[nH]nc(-c3ccc(N4CC5(CN(C)C5)C4)cc3)c2c1)c1ccccc1Cl [Example A28, (S)-N-(1-(2-Chlorophenyl)-2-methylpropyl)-3-(4-(6-methyl-2,6-diazaspiro[3.3]heptan-2-yl)phenyl)-1H-indazole-5-carboxamide]	≤ 100	≤ 100	≤ 100
O=C(N[C@@H](c1ccsc1)C1CCCC1)c1ccc2[nH]nc(-c3ccc(N4CC5(COC5)C4)cc3)c2c1 [Example A9, 3-(4-(2-Oxa-6-azaspiro[3.3]heptan-6-yl)phenyl)-N-((R)-cyclopentyl(thiophen-3-yl)methyl)-1H-indazole-5-carboxamide]	100 to 500	> 500	100 to 500
CN1CC2(C1)CN(c1ccc(-c3n[nH]c4ccc(C(=O)N[C@H](c5ccccc5)C5CC5)cc34)cc1)C2 [Example A29, (S)-N-(Cyclopropyl(phenyl)methyl)-3-(4-(6-methyl-2,6-diazaspiro[3.3]heptan-2-yl)phenyl)-1H-indazole-5-carboxamide]	≤ 100	≤ 100	≤ 100
O=C(N[C@H](c1ccccn1)C1CC1)c1ccc2[nH]nc(-c3ccc(N4CC5(CCO5)C4)cc3)c2c1 [Example A21, (S)-3-(4-(1-Oxa-6-azaspiro[3.3]heptan-6-yl)phenyl)-N-(cyclopropyl(pyridin-2-yl)methyl)-1H-indazole-5-carboxamide]	≤ 100	≤ 100	≤ 100
CC(C)C[C@H](NC(=O)c1ccc2[nH]nc(-c3ccc(N4CC5(COC5)C4)cc3)c2c1)c1ccccn1 [Example A27, (S)-3-(4-(2-oxa-6-azaspiro[3.3]heptan-6-yl)phenyl)-N-(3-methyl-1-(pyridin-2-yl)butyl)-1H-indazole-5-carboxamide]	≤ 100	≤ 100	≤ 100
O=C(N[C@H](c1ccccc1)C1CC1)c1ccc2[nH]nc(-c3ccc(N4CC5(CCOCC5)C4)cc3)c2c1 [Example A17, (S)-3-(4-(7-Oxa-2-azaspiro[3.5]nonan-2-yl)phenyl)-N-(cyclopropyl(phenyl)methyl)-1H-indazole-5-carboxamide]	100 to 500	100 to 500	100 to 500
O=C(N[C@H](c1ncccn1)C1CCCC1)c1ccc2[nH]nc(-c3ccc(N4CC5(COC5)C4)cc3)c2c1 [Example A25, (S)-3-(4-(2-oxa-6-azaspiro[3.3]heptan-6-yl)phenyl)-N-(cyclopentyl(pyrimidin-2-yl)methyl)-1H-indazole-5-carboxamide]	≤ 100	≤ 100	≤ 100

More lines, now with the values ahead:

GI50 [1] [nM]	GI50 [2] [nM]	GI50 [3] [nM]	Structure (SMILES)
≤ 100	≤ 100	≤ 100	O=C(N[C@H](c1ccccn1)C1CCCC1)c1ccc2[nH]nc(-c3ccc(N4CC5(C4)CN(C4COC4)C5)cc3)c2c1 [Example A31, (S)-N-(Cyclopentyl(pyridin-2-yl)methyl)-3-(4-(6-(oxetan-3-yl)-2,6-diazaspiro[3.3]heptan-2-yl)phenyl)-1H-indazole-5-carboxamide]
100 to 500	100 to 500	100 to 500	O=C(NC(c1ccccn1)C1CC1)c1ccc2[nH]nc(-c3ccc(N4CCC5(COC5)C4)cc3)c2c1 (stereo not drawn) [Example A16, 3-(4-(2-Oxa-6-azaspiro[3.4]octan-6-yl)phenyl)-N-(cyclopropyl(pyridin-2-yl)methyl)-1H-indazole-5-carboxamide]
≤ 100	≤ 100	≤ 100	CC(C)[C@H](NC(=O)c1ccc2[nH]nc(-c3ccc(N4CC5(C4)CN(C4COC4)C5)cc3)c2c1)c1ccccc1Cl [Example A30, (S)-N-(1-(2-Chlorophenyl)-2-methylpropyl)-3-(4-(6-(oxetan-3-yl)-2,6-diazaspiro[3.3]heptan-2-yl)phenyl)-1H-indazole-5-carboxamide]
≤ 100	≤ 100	≤ 100	O=C(N[C@@H](c1ncccn1)C1CCCC1)c1ccc2[nH]nc(-c3ccc(N4CC5(COC5)C4)cc3)c2c1 [Example A26, (R)-3-(4-(2-oxa-6-azaspiro[3.3]heptan-6-yl)phenyl)-N-(cyclopentyl(pyrimidin-2-yl)methyl)-1H-indazole-5-carboxamide]
≤ 100	≤ 100	≤ 100	O=C(N[C@H](c1ccccn1)C1CCCC1)c1ccc2[nH]nc(-c3ccc(N4CC5(CC(O)C5)C4)cc3)c2c1 [Example A33, (S)-N-(Cyclopentyl(pyridin-2-yl)methyl)-3-(4-(6-hydroxy-2-azaspiro[3.3]heptan-2-yl)phenyl)-1H-indazole-5-carboxamide]
≤ 100	≤ 100	≤ 100	O=C(N[C@@H](c1ccccn1)C1CC1)c1ccc2[nH]nc(-c3ccc(N4CC5(CCO5)C4)cc3)c2c1 [Example A22, (R)-3-(4-(1-Oxa-6-azaspiro[3.3]heptan-6-yl)phenyl)-N-(cyclopropyl(pyridin-2-yl)methyl)-1H-indazole-5-carboxamide]
